test system: naive human CD8+ T-cells; assay: CD8+ I-MUNE® T-cell proliferation assay (tritiated thymidine incorporation, dendritic cells + CD8+ T-cells + anti-CD40); assay type: cell-based; conditions: HPV E7.16 9-mer peptides, 5 μg/ml, 45 donors, 1 μg/ml anti-CD40; positive response at least 2.95 times the background
Method: Fresh human peripheral blood cells were collected from humans of unknown exposure status to HPV. These cells were tested to determine antigenic epitopes in HPV 16 and 18, as described in Example 3.
Peripheral mononuclear blood cells (stored at room temperature, no older than 24 hours) were prepared for use as follows. PBMC's were isolated from buffy coat material by centrifuging over an underlay of Lymphoprep at 1000×g for 30 minutes. The interface layer was collected and washed and counted using the Cell-Dyn 3700 System (Abbott). Then, suspensions containing 10^8 PBMC's resuspended in 30 ml of AIM-V (Invitrogen) were prepared and then allowed to adhere to plastic T-75 culture flasks for two hours. The remainder of the cells were frozen at 5×10^7 cells/ml in 45% FCS (Gibco/BRL), 45% PBS w/o Ca & Mg (Mediatech), and 10% DMSO (Sigma). After the two hour PBMC incubation, non-adherent cells were removed from the flasks. The adherent cells were cultured in the flasks with 800 units/ml recombinant human GM-CSF (R&D Systems) and 100 units/ml recombinant human IL-4 (Endogen) at 37° C., 5% CO2. On day 5 of incubation, 50 units/ml recombinant human Il-1α (Endogen) and 0.2 units/ml recombinant human TNF-α were added to the cultures. Adherent and non-adherent dendritic cells were harvested, washed, and counted on day 7, following a one-hour treatment with […] mitomycin C (Sigma) and 10 mM EDTA.
Autologous CD8+ T-cells were prepared from frozen aliquots of PBMCs. After thawing and washing in DPBS, CD8+ T-cells were isolated using a commercially available CD8 negative selection kit (Dynal), according to the manufacturer's instructions. Cells were counted using the Abbott Cell-Dyn 3700 System. The purity obtained using these methods was generally found to be greater than 90%.
This Example describes the assay system used in the present invention. The basic test system is also referred to as the “I-MUNE®” assay system. The basic I-MUNE® assay system was modified as described herein to facilitate analysis of CD8+ T-cell responses. As described in greater detail below, the modifications used in the development of the present invention involved the use of CD8 negative selection beads on PBMC (i.e., instead of CD4). In addition, when CD8 cells were resuspended, […] of a 2 ug/ml anti-CD40 solution was added, before placing the DCs and peptides in the plates (the final concentration of anti-CD40 was 1 ug/ml); and 1 ul of 1 ug/ml PHA was used as a positive control, instead of tetanus toxoid.
In 96-well, round bottom plates, autologous dendritic cells and CD8+ T-cells were combined with test peptides. More specifically, in a volume of 100 μl/well, 2×10^4 dendritic cells in AIM V were combined with individual peptides (at a final peptide concentration of 5 μg/ml and a final DMSO concentration of 0.25%). After a one-hour incubation at 37° C., 5% CO2, 2×10^5 CD8+ T-cells with 2 μg/ml anti-CD40 (eBioscience; Clone 5C3 mouse IgG1, kappa) were added to the culture for a total volume of 200 μl and a final anti-CD40 concentration of 1 μg/ml per well. Negative control wells contained dendritic cells, CD8+ T-cells and 0.25% DMSO. Positive control wells contained dendritic cells, CD8+ T-cells (at the same concentrations as the test wells) and 0.25% DMSO with 5 μg/ml PHA (Sigma) (List). In some experiments, 1 ug/ml anti-IgG1 (eBioscience; Clone P3 mouse IgG1, kappa) was used as an isotype control for comparison purposes. Individual peptides were tested in duplicate or triplicate for each donor.
After 5 days of incubation at 37° C., 5% CO2, the cultures were pulsed with 0.25 μCi/well tritiated thymidine (Perkin Elmer). After a subsequent 24 hours of incubation, plates were harvested and assessed for incorporation of the tritiated thymidine (i.e., T-cell proliferation) using a Wallac Microbeta TriLux liquid scintillation counter (Perkin Elmer). Responses were averaged over the duplicate tests performed for each specimen. […]

Sequence	Epitope Classification
GQAEPDRAH (human papillomavirus) [HPV E7.16 Peptide 43, 9-mer peptide of HPV16 E7]	Minor (“Minor epitopes” are those that have a response rate that is at least twice the background value)
LMGTLGIVC (human papillomavirus) [HPV E7.16 Peptide 83, 9-mer peptide of HPV16 E7]	Minor (“Minor epitopes” are those that have a response rate that is at least twice the background value)
LEDLLMGTL (human papillomavirus) [HPV E7.16 Peptide 79, 9-mer peptide of HPV16 E7]	Minor (“Minor epitopes” are those that have a response rate that is at least twice the background value)
DLYCYEQLN (human papillomavirus) [HPV E7.16 Peptide 21, 9-mer peptide of HPV16 E7]	Major (a “major epitope” is defined as having a response rate at least three standard deviations above the mean background response rate)
DTPTLHEYM (human papillomavirus) [HPV E7.16 Peptide 4, 9-mer peptide of HPV16 E7]	Moderate (“Moderate epitopes” are those epitopes that produce results that are at least two standard deviations above the mean or three times the background)
IVCPICSQK [HPV E7.16 Peptide 89]	Minor (“Minor epitopes” are those that have a response rate that is at least twice the background value)
LHEYMLDLQ (human papillomavirus) [HPV E7.16 Peptide 8, 9-mer peptide of HPV16 E7]	Minor (“Minor epitopes” are those that have a response rate that is at least twice the background value)
MHGDTPTLH (human papillomavirus) [HPV E7.16 Peptide 1, 9-mer peptide of HPV16 E7]	Minor (“Minor epitopes” are those that have a response rate that is at least twice the background value)
TLHEYMLDL (human papillomavirus) [HPV E7.16 Peptide 7, 9-mer peptide of HPV16 E7]	Minor (“Minor epitopes” are those that have a response rate that is at least twice the background value)
DLLMGTLGI (human papillomavirus) [HPV E7.16 Peptide 81, 9-mer peptide of HPV16 E7]	Minor (“Minor epitopes” are those that have a response rate that is at least twice the background value)
MGTLGIVCP (human papillomavirus) [HPV E7.16 Peptide 84, 9-mer peptide of HPV16 E7]	Minor (“Minor epitopes” are those that have a response rate that is at least twice the background value)
LLMGTLGIV [HPV E7.16 Peptide 82]	Minor (“Minor epitopes” are those that have a response rate that is at least twice the background value)
IRTLEDLLM (human papillomavirus) [HPV E7.16 Peptide 76, 9-mer peptide of HPV16 E7]	Minor (“Minor epitopes” are those that have a response rate that is at least twice the background value)
IVTFCCKCD (human papillomavirus) [HPV E7.16 Peptide 54, 9-mer peptide of HPV16 E7]	Minor (“Minor epitopes” are those that have a response rate that is at least twice the background value)
HEYMLDLQP (human papillomavirus) [HPV E7.16 Peptide 9, 9-mer peptide of HPV16 E7]	Minor (“Minor epitopes” are those that have a response rate that is at least twice the background value)
TPTLHEYML (human papillomavirus) [HPV E7.16 Peptide 5, 9-mer peptide of HPV16 E7]	Minor (“Minor epitopes” are those that have a response rate that is at least twice the background value)
DEIDGPAGO (DEIDGPAGQ; human papillomavirus) [HPV E7.16 Peptide 36, 9-mer peptide of HPV16 E7]	Moderate (“Moderate epitopes” are those epitopes that produce results that are at least two standard deviations above the mean or three times the background)
EDLLMGTLG (human papillomavirus) [HPV E7.16 Peptide 80, 9-mer peptide of HPV16 E7]	Minor (“Minor epitopes” are those that have a response rate that is at least twice the background value)

same assay, conditions: HPV E7.18 9-mer peptides, 5 μg/ml, 58 donors, 1 μg/ml anti-CD40; positive response at least 2.95 times the background

Sequence	Epitope Classification
SFVCPWCAS (human papillomavirus) [HPV E7.18 Peptide 95, 9-mer peptide of HPV18 E7]	Minor (“Minor epitopes” are those that have a response rate that is at least twice the background value)
ARRAEPQRH (human papillomavirus) [HPV E7.18 Peptide 51, 9-mer peptide of HPV18 E7]	Minor (“Minor epitopes” are those that have a response rate that is at least twice the background value)
RIKLVVESS (human papillomavirus) [HPV E7.18 Peptide 71, 9-mer peptide of HPV18 E7]	Minor (“Minor epitopes” are those that have a response rate that is at least twice the background value)
PQNEIPVDL (human papillomavirus) [HPV E7.18 Peptide 17, 9-mer peptide of HPV18 E7]	Minor (“Minor epitopes” are those that have a response rate that is at least twice the background value)
CKCEARIKL (human papillomavirus) [HPV E7.18 Peptide 66, 9-mer peptide of HPV18 E7]	Minor (“Minor epitopes” are those that have a response rate that is at least twice the background value)
